pKi: −log10 of the molar value. Read-outs that look alike come from different tables or passages of the source.
Tests used:
[1] = biological target: hCA IX; design: method as in PMID 26160114; conditions: Figure 2; cited from earlier work
[2] = biological target: hCA XII; design: method as in PMID 26160114; conditions: Figure 2; cited from earlier work
[3] = biological target: hCA IV (Homo sapiens, UniProt P22748); assay: stopped-flow CA catalysed CO2 hydration assay, hCA IV; conditions: for Ki: read-out: hCA Ki (μM) hCA IV, recombinant enzyme, stopped-flow CO2 hydration, 15 min preincubation, pH 8.3
Method: (§1) An applied photophysics stopped-flow instrument has been used for assaying the CA catalysed CO2 hydration activity[21]. […] The CO2 concentrations ranged from 1.7 to 17 mM for the determination of the kinetic parameters and inhibition constants. […] The uncatalysed rates were determined in the same manner and subtracted from the total observed rates. Stock solutions of inhibitor (0.1 mM) were prepared in distilled-deionized water and dilutions up to 0.005 nM were done thereafter with the assay buffer. Inhibitor and enzyme solutions were preincubated together for 15 min at room temperature prior to assay, in order to allow for the formation of the E–I complex. The inhibition constants were obtained by non-linear least-squares methods using PRISM 3 and the Cheng–Prusoff equation, as reported earlier, and represent the mean from at least three different determinations. All CA isoforms were recombinant ones obtained in-house[22–25].

[4] = biological target: hCA VII (Homo sapiens, UniProt P43166); assay: stopped-flow CA catalysed CO2 hydration assay, hCA VII; conditions: for Ki: read-out: hCA Ki (μM) hCA VII, recombinant enzyme, stopped-flow CO2 hydration, 15 min preincubation, pH 8.3
Method: as §1

[5] = biological target: hCA II (Homo sapiens, UniProt P00918); assay: stopped-flow CA catalysed CO2 hydration assay, hCA II; conditions: for Ki: read-out: hCA Ki (μM) hCA II, recombinant enzyme, stopped-flow CO2 hydration, 15 min preincubation, pH 8.3
Method: as §1

[6] = biological target: hCA I (Homo sapiens, UniProt P00915); assay: stopped-flow CA catalysed CO2 hydration assay, hCA I; conditions: for Ki: read-out: hCA Ki (μM) hCA I, recombinant enzyme, stopped-flow CO2 hydration, 15 min preincubation, pH 8.3
hCA I, sequence (P00915 whole entry): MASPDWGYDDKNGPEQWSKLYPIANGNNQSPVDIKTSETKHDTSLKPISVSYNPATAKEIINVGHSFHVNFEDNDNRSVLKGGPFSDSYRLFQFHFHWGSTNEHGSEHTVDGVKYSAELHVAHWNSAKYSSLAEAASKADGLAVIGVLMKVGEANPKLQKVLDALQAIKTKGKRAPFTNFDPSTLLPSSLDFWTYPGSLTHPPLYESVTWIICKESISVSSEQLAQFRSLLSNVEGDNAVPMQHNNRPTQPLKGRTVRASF
Method: as §1

hCA VII, sequence (P43166 whole entry): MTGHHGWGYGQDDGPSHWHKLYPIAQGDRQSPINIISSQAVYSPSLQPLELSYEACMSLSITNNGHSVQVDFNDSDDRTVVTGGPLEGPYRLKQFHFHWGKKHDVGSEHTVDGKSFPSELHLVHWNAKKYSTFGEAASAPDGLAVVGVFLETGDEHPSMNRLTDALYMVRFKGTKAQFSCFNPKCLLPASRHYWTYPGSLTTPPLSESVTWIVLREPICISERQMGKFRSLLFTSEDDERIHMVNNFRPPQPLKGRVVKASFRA
hCA IV, sequence (P22748 19-312): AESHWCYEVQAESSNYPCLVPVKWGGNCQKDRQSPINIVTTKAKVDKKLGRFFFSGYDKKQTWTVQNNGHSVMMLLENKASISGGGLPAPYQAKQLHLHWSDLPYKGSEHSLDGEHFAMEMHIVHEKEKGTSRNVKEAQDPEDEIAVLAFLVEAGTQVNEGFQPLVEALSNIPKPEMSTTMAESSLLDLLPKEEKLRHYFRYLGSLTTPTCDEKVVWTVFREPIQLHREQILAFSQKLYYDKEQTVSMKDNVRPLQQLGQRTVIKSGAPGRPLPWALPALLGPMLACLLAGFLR

Compound | pKi [1] | pKi [2] | pKi [3] | melting point [°C] | pKi [4] | pKi [5] | pKi [6] | Ki [3] [µM] | Ki [4] [µM] | Ki [5] [µM] | Ki [6] [µM] | isoform selectivity for hCA VII, in words ([4]; within the panel hCA I, II, IV, VII)
NS(=O)(=O)c1ccc(-c2cnc(C(=O)N3CCCC3)o2)s1 [Compound 4] | 7.73 | 8.17 |  |  |  |  |  |  |  |  |  | 
COc1cc(-n2nc(C)c(S(N)(=O)=O)c2C)ccc1S(N)(=O)=O [Compound 9k, 1-(3-Methoxy-4-sulfamoylphenyl)-3,5-dimethyl-^1H-pyrazole-4-sulfonamide] |  |  | < 5.00 | 256 to 258 | 6.77 | 6.21 | 5.33 |  |  |  |  | 
NS(=O)(=O)c1ccc(-n2cc(S(N)(=O)=O)cn2)cc1 [Compound 9c, 1-(4-Sulfamoylphenyl)-^1H-pyrazole-4-sulfonamide] |  |  | 7.60 | 254 to 257 | 7.39 | 8.70 | 6.70 |  |  |  |  | 
NS(=O)(=O)c1cnn(-c2ccc(Cl)c(S(N)(=O)=O)c2)c1 [Compound 9n, 1-(4-Chloro-3-sulfamoylphenyl)-^1H-pyrazole-4-sulfonamide] |  |  | 7.13 | 232 to 235 | 7.00 | 7.62 | 6.21 |  |  |  |  | 
NS(=O)(=O)c1ccc(-n2cccn2)cc1 [Compound 7a, 4-(^1H-pyrazol-1-yl)benzenesulfonamide] |  |  | < 5.00 | 323 to 325 | 6.10 | 7.14 | 5.32 |  |  |  |  | 
Cc1cc(C)n(-c2cc(S(N)(=O)=O)ccc2C)n1 [Compound 7e, 3-(3,5-Dimethyl-^1H-pyrazol-1-yl)-4-methylbenzenesulfonamide] |  |  | < 5.00 | 112 to 114 | 6.71 | 6.42 | 5.38 |  |  |  |  | 
NS(=O)(=O)c1cnn(-c2ccc(Cl)cc2)c1 [Compound 8f, 1-(4-Chlorophenyl)-^1H-pyrazole-4-sulfonamide] |  |  | 5.15 | 147 to 150 | < 5.00 | 7.09 | 6.72 |  |  |  |  | 
Cc1ccc(S(N)(=O)=O)cc1-n1cc(S(N)(=O)=O)cn1 [Compound 9i, 1-(2-Methyl-5-sulfamoylphenyl)-^1H-pyrazole-4-sulfonamide] |  |  |  | 185 to 188 |  |  |  | 7.86 | 0.014 | 0.03 | 0.55 | 
Cc1ccc(-n2nc(C)c(S(N)(=O)=O)c2C)cc1 [Compound 8c, 3,5-Dimethyl-1-(4-methylphenyl)-^1H-pyrazole-4-sulfonamide] |  |  | < 5.00 | 171 to 174 | < 5.00 | 6.13 | 6.12 |  |  |  |  | 
Cc1cc(-n2cccn2)ccc1S(N)(=O)=O [Compound 7d, 2-Methyl-4-(^1H-pyrazol-1-yl)benzenesulfonamide] |  |  | 5.47 | 161 to 163 | 7.85 | 8.10 | 7.02 |  |  |  |  | 
Cc1cc(-n2cc(S(N)(=O)=O)cn2)ccc1S(N)(=O)=O [Compound 9g, 1-(3-Methyl-4-sulfamoylphenyl)-^1H-pyrazole-4-sulfonamide] |  |  |  | 205 to 207 |  |  |  | 5.8 | 0.005 | 0.049 | 0.1 | 
NS(=O)(=O)c1ccc(Cl)c(-n2cccn2)c1 [Compound 7n, 4-Chloro-3-(^1H-pyrazol-1-yl)benzenesulfonamide] |  |  | 8.40 | 204 to 206 | 8.05 | 9.00 | 5.42 |  |  |  |  | 
COc1cc(-n2cccn2)ccc1S(N)(=O)=O [Compound 7j, 2-Methoxy-4-(^1H-pyrazol-1-yl)benzenesulfonamide] |  |  | < 5.00 | 221 to 223 | 6.41 | < 5.00 | < 5.00 |  |  |  |  | quite notable
NS(=O)(=O)c1ccc(-n2cccn2)cc1Cl [Compound 7m, 2-Chloro-4-(^1H-pyrazol-1-yl)benzenesulfonamide] |  |  | 7.07 | 181 to 183 | 6.48 | 7.07 | 7.18 |  |  |  |  | 
